Laboratory results as given in patent US10849336B2, “Cocoa-based food products” (IP Science Limited, priority 2011, dated 2020).
Where “and” joins values, the source holds several entries; their conditions need not be identical. Identical values can stand only once.

Experiments:
[1] = system: CHD patients; test: Clinical trial in CHD patients, daily lycopene, control chocolate or L-chocolate; assay type: in vivo, human
Protocol: Commercially available dark chocolate (Green & Black's Dark Chocolate; 85% cocoa) was melted at 70° C. The melted chocolate was mixed with tomato oleoresin, containing 15% of lycopene (Lyc-O-Mato), in the ratio of 1.57 mg of oleoresin to 1 g of the chocolate. The mixture was blended for 10 minutes and then divided into daily […] 30 g portions and cooled down to the room temperature.
Each […] 30 g chocolate portion contained 47.1 mg of tomato oleoresin or about 7 mg of lycopene.
The melting and mixing procedures were performed as described above using the same commercially available dark chocolate, but instead of tomato oleoresin, sunflower oil (Floral™) was used.
47.1 mg of tomato oleoresin was pre-dissolved in ethanol and mixed with Whey Protein as described in Richelle et al (2002) J Nutr 132 404-408, WO01/091588 and US2002/01072992. Then the mixture was placed into gelatine capsules.
18 male CHD patients, age 47-69, were recruited for this study.
Main inclusion criteria were: • elevated total serum cholesterol above 200 mg/dL and/or triglycerides above 150 mg/dL, • all patients were naive for any lipid-lowering medications, • stable clinical conditions and regimen of medications was t the last 3 months.
Secondary inclusion criteria were: • positive blood markers on inflammatory oxidative damage, IOD, >20-30 μM MDA • positive blood on an antibody inflammatory marker, Px-IgG>0.250-0.300 U/ml
All patients were randomised and divided into three equal groups of 6 patients each. Two groups receiving chocolate were blinded; the group receiving lycopene preparation along was open labelled. The period of the trial was 4 weeks.

[2] = system: cholesterol; conditions: cited from earlier work
[3] = Baseline, group mean (unlabelled last line)
[4] = Week 1, group mean (unlabelled last line)
[5] = Week 2, group mean (unlabelled last line)
[6] = Week 3, group mean (unlabelled last line)

CC(C)=CCC/C(C)=C/C=C/C(C)=C/C=C/C(C)=C/C=C/C=C(C)/C=C/C=C(C)/C=C/C=C(\C)CCC=C(C)C [Lycopene]
ALT [1, 3]: 29.2 U/L
AST [1, 3]: 37.3 U/L
GL [1, 3]: 5.4 mmol/L
HDL [1, 3]: 40.5 mg/dL
IOD [1, 3]: 95 μM MDA
LDL [1, 3]: 157 mg/dL
Px-IgG [1, 3]: 0.762 U/ml
TC [1, 3]: 222 mg/dL
TG [1, 3]: 149 mg/dL
ALT ([1]; Baseline, individual patient): 35 U/L and 29 U/L and 26 U/L and 25 U/L and 36 U/L and 24 U/L
AST ([1]; Baseline, individual patient): 27 U/L and 49 U/L and 25 U/L and 44 U/L and 45 U/L and 34 U/L
GL ([1]; Baseline, individual patient): 4.4 mmol/L and 5.9 mmol/L and 6.1 mmol/L and 6.5 mmol/L and 5.6 mmol/L and 3.8 mmol/L
HDL ([1]; Baseline, individual patient): 44 mg/dL and 37 mg/dL and 40 mg/dL and 39 mg/dL and 42 mg/dL and 41 mg/dL
IOD ([1]; Baseline, individual patient): 95 μM MDA and 83 μM MDA and 49 μM MDA and 101 μM MDA and 162 μM MDA and 79 μM MDA
LDL ([1]; Baseline, individual patient): 161 mg/dL and 186 mg/dL and 147 mg/dL and 153 mg/dL and 159 mg/dL and 135 mg/dL
Px-IgG ([1]; Baseline, individual patient): 0.803 U/ml and 0.751 U/ml and 0.743 U/ml and 0.698 U/ml and 0.811 U/ml
TC ([1]; Baseline, individual patient): 219 mg/dL and 243 mg/dL and 210 mg/dL and 225 mg/dL and 231 mg/dL and 204 mg/dL
TG ([1]; Baseline, individual patient): 126 mg/dL and 165 mg/dL and 157 mg/dL and 161 mg/dL and 150 mg/dL and 134 mg/dL
ALT [1, 4]: 31.5 U/L
AST [1, 4]: 39.7 U/L
GL [1, 4]: 5.3 mmol/L
HDL [1, 4]: 40.3 mg/dL
IOD [1, 4]: 96 μM MDA
LDL [1, 4]: 157 mg/dL
Px-IgG [1, 4]: 0.823 U/ml
TC [1, 4]: 221 mg/dL
TG [1, 4]: 150 mg/dL
ALT ([1]; Week 1, individual patient): 31 U/L and 33 U/L (2×) and 29 U/L (2×) and 34 U/L
AST ([1]; Week 1, individual patient): 47 U/L and 46 U/L and 36 U/L and 31 U/L and 44 U/L and 34 U/L
GL ([1]; Week 1, individual patient): 6.4 mmol/L and 5.7 mmol/L and 4.9 mmol/L and 3.6 mmol/L and 5.1 mmol/L and 6.1 mmol/L
HDL ([1]; Week 1, individual patient): 39 mg/dL and 42 mg/dL and 40 mg/dL (2×) and 43 mg/dL and 38 mg/dL
IOD ([1]; Week 1, individual patient): 99 μM MDA and 158 μM MDA and 85 μM MDA and 94 μM MDA and 81 μM MDA and 57 μM MDA
LDL ([1]; Week 1, individual patient): 153 mg/dL and 160 mg/dL (2×) and 134 mg/dL and 185 mg/dL and 149 mg/dL
Px-IgG ([1]; Week 1, individual patient): 0.823 U/ml and 0.746 U/ml and 0.809 U/ml and 0.867 U/ml and 0.851 U/ml and 0.839 U/ml
TC ([1]; Week 1, individual patient): 224 mg/dL and 231 mg/dL and 205 mg/dL and 217 mg/dL and 241 mg/dL and 209 mg/dL
TG ([1]; Week 1, individual patient): 160 mg/dL and 152 mg/dL and 137 mg/dL and 130 mg/dL and 164 mg/dL and 159 mg/dL
ALT [1, 5]: 30.8 U/L
AST [1, 5]: 37.5 U/L
GL [1, 5]: 5.2 mmol/L
HDL [1, 5]: 40.3 mg/dL
IOD [1, 5]: 92 μM MDA
LDL [1, 5]: 156 mg/dL
Px-IgG [1, 5]: 0.818 U/ml
TC [1, 5]: 221 mg/dL
TG [1, 5]: 150 mg/dL
ALT ([1]; Week 2, individual patient): 29 U/L and 31 U/L (2×) and 28 U/L and 32 U/L and 34 U/L
AST ([1]; Week 2, individual patient): 43 U/L and 42 U/L and 31 U/L and 38 U/L and 41 U/L and 30 U/L
GL ([1]; Week 2, individual patient): 6.6 mmol/L and 5.2 mmol/L and 5.4 mmol/L and 4.1 mmol/L and 3.9 mmol/L and 6 mmol/L
HDL ([1]; Week 2, individual patient): 39 mg/dL (2×) and 41 mg/dL (2×) and 40 mg/dL and 42 mg/dL
IOD ([1]; Week 2, individual patient): 95 μM MDA and 139 μM MDA and 84 μM MDA and 91 μM MDA and 75 μM MDA and 68 μM MDA
LDL ([1]; Week 2, individual patient): 152 mg/dL and 158 mg/dL and 133 mg/dL and 159 mg/dL and 183 mg/dL and 150 mg/dL
Px-IgG ([1]; Week 2, individual patient): 0.812 U/ml and 0.809 U/ml and 0.815 U/ml and 0.844 U/ml and 0.830 U/ml and 0.799 U/ml
TC ([1]; Week 2, individual patient): 223 mg/dL and 230 mg/dL and 208 mg/dL (2×) and 216 mg/dL and 239 mg/dL
TG ([1]; Week 2, individual patient): 159 mg/dL and 151 mg/dL and 138 mg/dL and 132 mg/dL and 162 mg/dL and 158 mg/dL
ALT [1, 6]: 29.3 U/L
AST [1, 6]: 37.8 U/L
GL [1, 6]: 5.22 mmol/L
HDL [1, 6]: 40.2 mg/dL
IOD [1, 6]: 94 μM MDA
LDL [1, 6]: 154 mg/dL
Px-IgG [1, 6]: 0.806 U/ml
TC [1, 6]: 219 mg/dL
TG [1, 6]: 149 mg/dL
ALT ([1]; Week 3, individual patient): 32 U/L and 29 U/L and 25 U/L and 31 U/L (2×) and 28 U/L
AST ([1]; Week 3, individual patient): 42 U/L (2×) and 39 U/L and 35 U/L and 36 U/L and 33 U/L
GL ([1]; Week 3, individual patient): 6.2 mmol/L and 4.8 mmol/L and 5.1 mmol/L and 5 mmol/L and 4.4 mmol/L and 5.8 mmol/L
HDL ([1]; Week 3, individual patient): 39 mg/dL and 42 mg/dL and 40 mg/dL and 41 mg/dL (2×) and 38 mg/dL
IOD ([1]; Week 3, individual patient): 94 μM MDA and 136 μM MDA and 85 μM MDA and 93 μM MDA and 76 μM MDA and 81 μM MDA
LDL ([1]; Week 3, individual patient): 151 mg/dL and 157 mg/dL and 132 mg/dL and 155 mg/dL and 179 mg/dL and 152 mg/dL
Px-IgG ([1]; Week 3, individual patient): 0.834 U/ml and 0.781 U/ml and 0.84 U/ml and 0.795 U/ml and 0.809 U/ml and 0.774 U/ml
TC ([1]; Week 3, individual patient): 221 mg/dL and 227 mg/dL and 210 mg/dL and 214 mg/dL and 232 mg/dL and 211 mg/dL
TG ([1]; Week 3, individual patient): 155 mg/dL and 149 mg/dL and 135 mg/dL and 142 mg/dL and 161 mg/dL and 154 mg/dL
changes in levels of elevated cholesterol, triglycerides and markers of oxidative damage or inflammation ([1]; after two weeks of administration, 7 mg lycopene or 30 g control bar): no changes
cholesterol-lowering effect ([2]; 13 clinical studies, daily doses 25 mg of lycopene or above): 7.55 ± 6.15 mg/dL
effect on cholesterol or other blood lipids ([2]; daily consumption of 6-10 mg): no effect on cholesterol or other blood lipids
